According to patent US8778953B2, “Inhibitors of P38 map kinase” (Chroma Therapeutics Ltd., priority 2008, dated 2014):
pIC50: −log10 of the molar value. Like-named read-outs stand apart in the source and are kept apart here.

How the values were obtained:
[1] = tested on: phosphorylation of MAPKAP-2 in HUT 78 cells; test: p38 MAP kinase cellular assay: inhibition of phosphorylation of MAPKAP-2 in HUT 78 cells; format: cell-based; conditions: for Ratio IC50s in HUT 78 to U937 cells: HUT 78 IC50 / U937 IC50; for IC50: Homo sapiens, HuT78, Table 3, HUT 78 non-monocytic cell line
Protocol: (§1) U937 or HUT78 cells were plated in RPMI 1640, and were incubated at 37° C., 5% CO2 for 18 hours. 10 mM stocks of compounds were diluted media/0.1% DMSO to give a log or semi-log dilution series. The wells for ‘no treatment’ and ‘anisomycin’ were treated with 0.1% DMSO only. The cells were incubated at 37° C., 5% CO2 for a further 4 hours. Anisomycin was added to all wells except ‘no treatment’ at a final concentration of 10 μM. The cells were incubated at 37° C., 5% CO2 for 30 minutes before harvest. Plates were stood on ice whilst harvesting, and all following steps were carried out at 4° C. The cells were pelleted at 1000 rpm for 10 minutes at 4° C., the media aspirated, and the pellet washed with cold PBS. The pellets were lysed in 120 μl of SDS lysis buffer (62.5 mM Tris, pH 6.8, 2% SDS, 10% glycerol, 50 mM DTT, with protease inhibitors and phosphatase inhibitors added according to the manufacturer's recommendations). After 30 minutes on ice, the samples were sonicated for 5 seconds before centrifugation at 13,000 rpm 4° C. for 10 minutes to remove cell debris. 10 μl of the resulting gel samples were loaded per lane on NOVEX 4-12% Bis-Tris MOPS gels. Membranes from western transfer of gels were blotted with anti-phospho MAPKAP2, anti-phospho HSP27 and anti GAPDH according to the manufacturer's instructions. Signal was visualised using HRP-linked anti-rabbit or anti-mouse antibodies, ECL reagent and ECL film. IC50 values for the various compounds were visualised from the resulting photographic images, using both band-shift and signal intensity.

p38 MAP Kinase a = target: T1, p38 MAP Kinase a (Homo sapiens, UniProt Q16539); test: p38 MAP Kinase activity, radiometric filter-binding assay (Upstate); format: biochemical; conditions: IC50 range; read-out: Inhibitor activity versus p38 MAPKa
T1 construct: purchased Upstate (Dundee UK)
Protocol: The ability of compounds to inhibit p38 MAP a Kinase activity was measured in an assay performed by Upstate (Dundee UK). In a final reaction volume of 25 μL, p38 MAP Kinase a (5-10 mU) is incubated with 25 mM Tris pH 7.5, 0.002 mMEGTA, 0.33 mg/mL myelin basic protein, 10 mM MgAcetate and [g-33p-ATP] (specific activity approx. 500 cpm/pmol, concentration as required). The reaction is initiated by the addition of the MgATP mix. After incubation for 40 minutes at room temperature, the reaction is stopped by the addition of 5 μL of a 3% phosphoric acid solution. 10 μL of the reaction is then spotted onto a P30 filtermat and washed three times for 5 minutes in 75 mM phosphoric acid and once in methanol prior to drying and scintillation counting.
Duplicate data points are generated from a 1/3 log dilution series of a stock solution in DMSO. Nine dilutions steps are made from a top concentration of 10 μM and a ‘no compound’ blank is included. The standard radiometric filter-binding assay is performed at an ATP concentration at, or close to, the Km. Data from scintillation counts are collected and subjected to free-fit analysis by Prism software. From the curve generated, the concentration giving 50% inhibition is determined and reported.

U937 cells = test: Cell accumulation of the acid in U937 cells; format: cell-based; conditions: U937 monocytic versus non-monocytic cell line
[2] = tested on: phosphorylation of MAPKAP-2 in U937 cells; test: p38 MAP kinase cellular assay: inhibition of phosphorylation of MAPKAP-2 in U937 cells; format: cell-based; conditions: for pIC50 / IC50: Homo sapiens, U-937; for pIC50: Table 2, read-out: Inhibition of phosphorylation of MAPKAP-2 in U937 cells (IC50); for IC50: Table 3, U937 monocyte cell line, read-out: Inhibition of phosphorylation of MAPKAP-2 in U937 cells (IC50, nM) (monocyte cell line); for Ratio cell IC50s to enzyme IC50: U937 cell IC50 / P38 enzyme IC50
Protocol: as §1

[3] = tested on: human whole blood TNFα release; test: LPS-stimulation of human whole blood, TNF-α release (ELISA); format: cell-based; conditions: LPS-stimulated human whole blood, IC50 range; read-out: Inhibitor activity versus human whole blood TNFα release
Protocol: Whole blood was taken by venous puncture using heparinised vacutainers (Becton Dickinson) and diluted in an equal volume of RPMI1640 tissue culture media (Sigma). 100 μl was plated in V-bottomed 96 well tissue culture treated plates. 2 hours after the addition of the inhibitor in 100 μl of RPMI1640 media, the blood was stimulated with LPS (E coli strain 005:B5, Sigma) at a final concentration of 100 ng/ml and incubated at 37° C. in 5% CO2 for 6 hours. TNF-α levels were measured from cell-free supernatants by sandwich ELISA (R&D Systems #QTA00B).

THP-1 TNFα release = test: LPS-stimulation of THP-1 cells, TNF-α release (ELISA); format: cell-based; conditions: Homo sapiens; LPS-stimulated THP-1 cells, IC50 range; read-out: Inhibitor activity versus THP-1 TNFα release
Protocol: THP-1 cells were plated in 100 μl at a density of 4×10^4 cells/well in V-bottomed 96 well tissue culture treated plates and incubated at 37° C. in 5% CO2 for 16 hours. 2 hours after the addition of the inhibitor in 100 μl of tissue culture media, the cells were stimulated with LPS (E. coli strain 005:B5, Sigma) at a final concentration of 1 μg/ml and incubated at 37° C. in 5% CO2 for 6 hours. TNF-α levels were measured from cell-free supernatants by sandwich ELISA (R&D Systems #QTA00B).

T1 sequence (Q16539 whole entry): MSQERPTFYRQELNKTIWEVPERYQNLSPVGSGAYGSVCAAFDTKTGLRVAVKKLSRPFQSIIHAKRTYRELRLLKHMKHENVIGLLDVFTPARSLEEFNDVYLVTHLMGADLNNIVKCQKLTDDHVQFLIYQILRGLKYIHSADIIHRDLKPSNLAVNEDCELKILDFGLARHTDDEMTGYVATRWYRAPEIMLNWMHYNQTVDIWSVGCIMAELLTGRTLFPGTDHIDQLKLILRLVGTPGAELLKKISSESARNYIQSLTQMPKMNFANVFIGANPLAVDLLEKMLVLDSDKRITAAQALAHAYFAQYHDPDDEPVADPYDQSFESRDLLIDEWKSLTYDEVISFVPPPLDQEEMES

CC(C)(NCCc1ccc(-n2c(N)c(C(=O)c3ccc(F)cc3F)ccc2=O)cc1)C(=O)OC1CCCC1 [Example 1, Cyclopentyl N-(2-{4-[6-amino-5-(2,4-difluorobenzoyl)-2-oxopyridin-1(2H)-yl]phenyl}ethyl)-2-methylalaninate]
Ratio IC50s in HUT 78 to U937 cells [1]: 100
IC50 [1]: 1000 nM
pIC50 (p38 MAP Kinase a): > 7.00
Accumulation of the acid in cells (in words) (U937 cells): only accumulates in the monocytic cell line
pIC50 ([2]; U937 cells): 8.00
IC50 [2]: 10 nM
Ratio cell IC50s to enzyme IC50 [2]: 0.2
Potency in cells relative to the parent compound lacking the esterase motif ([2]; U937 cells): 30 times
pIC50 [3]: 6.00 to 7.00
pIC50 (THP-1 TNFα release): > 7.00

CC(C)(NCCc1cc(F)c(-n2c(N)c(C(=O)c3ccc(F)cc3F)ccc2=O)c(F)c1)C(=O)OC1CCCC1 [Example 2, Cyclopentyl N-(2-{4-[6-amino-5-(2,4-difluorobenzoyl)-2-oxopyridin-1(2H)-yl]-3,5-difluorophenyl}ethyl)-2-methylalaninate]
pIC50 (p38 MAP Kinase a): > 7.00
pIC50 [3]: > 7.00
pIC50 (THP-1 TNFα release): > 7.00

CC(C)(NC(=O)Cc1ccc(-n2c(N)c(C(=O)c3ccc(F)cc3F)ccc2=O)cc1)C(=O)OC1CCCC1 [Example 3, Cyclopentyl N-({4-[6-amino-5-(2,4-difluorobenzoyl)-2-oxopyridin-1(2H)-yl]phenyl}acetyl)-2-methylalaninate]
pIC50 (p38 MAP Kinase a): > 7.00
pIC50 [3]: < 6.00
pIC50 (THP-1 TNFα release): 6.00 to 7.00

Nc1c(C(=O)c2ccc(F)cc2F)ccc(=O)n1-c1ccc(CCNC2(C(=O)OC3CCCC3)CCCC2)cc1 [Example 4, Cyclopentyl 1-[(2-{4-[6-amino-5-(2,4-difluorobenzoyl)-2-oxopyridin-1(2H)-yl]phenyl}ethyl)amino]cyclopentanecarboxylate]
pIC50 (p38 MAP Kinase a): > 7.00
pIC50 [3]: < 6.00
pIC50 (THP-1 TNFα release): > 7.00

CC[C@](C)(NCCc1ccc(-n2c(N)c(C(=O)c3ccc(F)cc3F)ccc2=O)cc1)C(=O)OC1CCCC1 [Example 5, Cyclopentyl N-(2-{4-[6-amino-5-(2,4-difluorobenzoyl)-2-oxopyridin-1(2H)-yl]phenyl}ethyl)-L-isovalinate]
pIC50 (p38 MAP Kinase a): 6.00 to 7.00
pIC50 [3]: < 6.00
pIC50 (THP-1 TNFα release): > 7.00

CC[C@](C)(NCCc1ccc(-n2c(N)c(C(=O)c3ccc(F)cc3F)ccc2=O)cc1)C(=O)OC(C)(C)C [Example 6, tert-butyl N-(2-{4-[6-amino-5-(2,4-difluorobenzoyl)-2-oxopyridin-1(2H)-yl]phenyl}ethyl)-L-isovalinate]
pIC50 (p38 MAP Kinase a): 6.00 to 7.00
pIC50 (THP-1 TNFα release): 6.00 to 7.00

CC(C)(NCCc1ccc(-n2c(N)c(C(=O)c3ccc(F)cc3F)ccc2=O)cc1)C(=O)OC1Cc2ccccc2C1 [Example 7, 2,3-dihydro-1H-inden-2-yl N-(2-{4-[6-amino-5-(2,4-difluorobenzoyl)-2-oxopyridin-1(2H)-yl]phenyl}ethyl)-2-methylalaninate]
pIC50 (p38 MAP Kinase a): 6.00 to 7.00
pIC50 [3]: < 6.00
pIC50 (THP-1 TNFα release): > 7.00

CC(C)(NCCc1ccc(-n2c(N)c(C(=O)c3ccc(F)cc3F)ccc2=O)cc1)C(=O)OC1CC2CCC1C2 (centres unmarked) [Example 8, bicyclo[2.2.1]hept-2-yl N-(2-{4-[6-amino-5-(2,4-difluorobenzoyl)-2-oxopyridin-1(2H)-yl]phenyl}ethyl)-2-methylalaninate]
pIC50 [3]: < 6.00
pIC50 (THP-1 TNFα release): > 7.00

CC(C)(NCCCOc1cc(F)c(-n2c(N)c(C(=O)c3ccc(F)cc3F)ccc2=O)c(F)c1)C(=O)OC1CCCC1 [Example 9, Cyclopentyl N-(3-{4-[6-amino-5-(2,4-difluorobenzoyl)-2-oxopyridin-1(2H)-yl]-3,5-difluorophenoxy}propyl)-2-methylalaninate]
pIC50 (p38 MAP Kinase a): > 7.00
pIC50 [3]: 6.00 to 7.00
pIC50 (THP-1 TNFα release): > 7.00

CC(C)(C)OC(=O)C(C)(C)NCCCOc1cc(F)c(-n2c(N)c(C(=O)c3ccc(F)cc3F)ccc2=O)c(F)c1 [Example 10, tert-butyl N-(3-{4-[6-amino-5-(2,4-difluorobenzoyl)-2-oxopyridin-1(2H)-yl]-3,5-difluorophenoxy}propyl)-2-methylalaninate]
pIC50 (p38 MAP Kinase a): > 7.00
pIC50 [3]: < 6.00
pIC50 (THP-1 TNFα release): > 7.00

CC(C)(NCCc1ccc(-n2c(N)c(C(=O)c3ccc(F)cc3F)ccc2=O)cc1)C(=O)O [Example 11, N-(2-{4-[6-amino-5-(2,4-difluorobenzoyl)-2-oxopyridin-1(2H)yl]phenyl}ethyl)-2-methylalanine]
pIC50 (p38 MAP Kinase a): > 7.00

CC(C)(NCCc1cc(F)c(-n2c(N)c(C(=O)c3ccc(F)cc3F)ccc2=O)c(F)c1)C(=O)O [Example 12, N-(2-{4-[6-amino-5-(2,4-difluorobenzoyl)-2-oxopyridin-1(2H)-yl]-3,5-difluorophenyl}ethyl)-2-methylalanine]
pIC50 (p38 MAP Kinase a): > 7.00

CC(C)(NC(=O)Cc1ccc(-n2c(N)c(C(=O)c3ccc(F)cc3F)ccc2=O)cc1)C(=O)O [Example 13]
pIC50 (p38 MAP Kinase a): 6.00 to 7.00

CC[C@](C)(NCCc1ccc(-n2c(N)c(C(=O)c3ccc(F)cc3F)ccc2=O)cc1)C(=O)O [Example 14, N-(2-{4-[6-amino-5-(2,4-difluorobenzoyl)-2-oxopyridin-1(2H)-yl]phenyl}ethyl)-L-isovaline]
pIC50 (p38 MAP Kinase a): > 7.00

Nc1c(C(=O)c2ccc(F)cc2F)ccc(=O)n1-c1ccc(CCNC2(C(=O)O)CCCC2)cc1 [Example 15, 1-[(2-{4-[6-amino-5-(2,4-difluorobenzoyl)-2-oxopyridin-1(2H)-yl]phenyl}ethyl)amino]cyclopentanecarboxylic acid]
pIC50 (p38 MAP Kinase a): 6.00 to 7.00

CC(C)(NCCCOc1cc(F)c(-n2c(N)c(C(=O)c3ccc(F)cc3F)ccc2=O)c(F)c1)C(=O)O [Example 16, N-(3-{4-[6-amino-5-(2,4-difluorobenzoyl)-2-oxopyridin-1(2H)-yl]-3,5-difluorophenoxy}propyl)-2-methylalanine]
pIC50 (p38 MAP Kinase a): > 7.00

Nc1c(C(=O)c2ccc(F)cc2F)ccc(=O)n1-c1ccccc1 [Parent Compound I, reference compound]
Ratio IC50s in HUT 78 to U937 cells [1]: 1.5
Ratio IC50s in HUT 78 to U937 cells ([1]; listed as compound I): equipotent
IC50 [1]: 450 nM
pIC50 ([2]; U937 cells): 6.52
IC50 [2]: 300 nM
Ratio cell IC50s to enzyme IC50 [2]: 6
